According to ChEMBL document CHEMBL1201862, “PubChem BioAssay data set” (2004):
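Assay format: 96-well plates, 48-hour exposure. GI50: concentration for 50% inhibition of growth.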 Activity calls are given as the source filed them. Cut-off read from the data, not from the text of the source: active = GI50 up to about 1.1 µM and inactive = higher.

What was measured:
Assay in all cases: growth of human tumour cells (NCI), 48 h
[1] = system: MOLT-4
[2] = system: HOP-62
[3] = system: TK-10
[4] = system: SK-MEL-5
[5] = system: ACHN
[6] = system: SK-MEL-2
[7] = system: CAKI-1
[8] = system: OVCAR-5
[9] = system: 786-0
[10] = system: K562
[11] = system: UACC-257
[12] = system: KM12
[13] = system: SF-539
[14] = system: HOP-92
[15] = system: HCT-15
[16] = system: SK-MEL-28
[17] = system: UO-31
[18] = system: NCI-H23
[19] = system: LOX IMVI

Compound	GI50 [1]	GI50 [2]	GI50 [3]	GI50 [4]	GI50 [5]	GI50 [6]	GI50 [7]	GI50 [8]	GI50 [9]	GI50 [10]	GI50 [11]	GI50 [12]	GI50 [13]	GI50 [14]	GI50 [15] [µM]	GI50 [16]	GI50 [17]	GI50 [18]	GI50 [19]
CC(C)(C)c1nc2c(o1)/C(=N\c1ccccc1)c1ccccc1C2=O	3.95 µM (inactive)	17.3 µM (inactive)	30.2 µM (inactive)	1.42 µM (inactive)	4.69 µM (inactive)	2.53 µM (inactive)	12 µM (inactive)	13.6 µM (inactive)	24.4 µM (inactive)	3.55 µM (inactive)	1.72 µM (inactive)	11.7 µM (inactive)	2.99 µM (inactive)	4.69 µM (inactive)	4.25	4.4 µM (inactive)	5.89 µM (inactive)	1.44 µM (inactive)	0.603 µM (active)
CCc1cc(Cc2cc(CC)c(NC(=O)C(=O)Cc3ccccn3)c(CC)c2Cl)c(Cl)c(CC)c1NC(=O)C(=O)Cc1ccccn1	> 100 µM (inactive)	> 100 µM (inactive)	> 100 µM (inactive)	> 100 µM (inactive)	> 100 µM (inactive)	> 100 µM (inactive)	> 100 µM (inactive)	> 100 µM (inactive)	> 100 µM (inactive)	> 100 µM (inactive)	40.4 µM (inactive)	78.3 µM (inactive)	> 100 µM (inactive)	> 100 µM (inactive)	39.4	> 100 µM (inactive)	> 100 µM (inactive)	> 100 µM (inactive)	41.8 µM (inactive)
COc1c(OC(C)=O)cc2c(OC(C)=O)c1CC(C)CC(OC)C(O)C(C)/C=C(\C)C(OC(N)=O)C(OC)/C=C\C=C(/C)C(=O)N2 (configuration not stated)	> 27 µM (inactive)	> 100 µM (inactive)	> 81.8 µM (inactive)	> 100 µM (inactive)	> 100 µM (inactive)	> 100 µM (inactive)	> 100 µM (inactive)	> 100 µM (inactive)	> 81.3 µM (inactive)	> 26.3 µM (inactive)	> 100 µM (inactive)	> 100 µM (inactive)	> 100 µM (inactive)	96.8 µM (inactive)	> 64.7	> 100 µM (inactive)	> 83.6 µM (inactive)	> 100 µM (inactive)	> 100 µM (inactive)
CCOCc1cc(=O)c2cc3c(cc2o1)OC(C)(C)CC3	55.5 µM (inactive)	> 100 µM (inactive)	> 100 µM (inactive)	56.6 µM (inactive)	> 100 µM (inactive)	> 100 µM (inactive)	> 100 µM (inactive)	> 100 µM (inactive)	> 100 µM (inactive)	97.5 µM (inactive)	65.3 µM (inactive)	> 100 µM (inactive)	> 100 µM (inactive)	45.7 µM (inactive)	> 100	–	92.9 µM (inactive)	> 100 µM (inactive)	> 100 µM (inactive)
CCSc1nc2sc(C)c(C)c2c(=O)n1-c1ccc(C(=O)O)cc1	48.5 µM (inactive)	88.5 µM (inactive)	> 100 µM (inactive)	49 µM (inactive)	79.6 µM (inactive)	> 100 µM (inactive)	> 100 µM (inactive)	> 100 µM (inactive)	> 100 µM (inactive)	55.5 µM (inactive)	98.4 µM (inactive)	54.8 µM (inactive)	18.8 µM (inactive)	> 100 µM (inactive)	39.9	54.5 µM (inactive)	25.1 µM (inactive)	38.3 µM (inactive)	56.2 µM (inactive)
COc1ccc(OC)c(-c2cc(=O)c3c(OC)c(OC)c(OC)c(OC)c3o2)c1	9.44 µM (inactive)	27.6 µM (inactive)	37.9 µM (inactive)	12.4 µM (inactive)	20.7 µM (inactive)	20 µM (inactive)	40.6 µM (inactive)	49.1 µM (inactive)	27.4 µM (inactive)	22.2 µM (inactive)	36.2 µM (inactive)	–	41.1 µM (inactive)	11.7 µM (inactive)	21.3	40.1 µM (inactive)	15.4 µM (inactive)	30.1 µM (inactive)	25.6 µM (inactive)
COc1cc([C@@H]2c3cc4c(cc3[C@@H](NCc3ccc(C#N)cc3)C3COC(=O)[C@@H]32)OCO4)cc(OC)c1O (some centres not stated)	0.0512 µM (active)	0.31 µM (active)	1.84 µM (inactive)	1.5 µM (inactive)	0.272 µM (active)	3.27 µM (inactive)	1.26 µM (inactive)	2.02 µM (inactive)	0.632 µM (active)	1.54 µM (inactive)	4.76 µM (inactive)	1.4 µM (inactive)	0.877 µM (active)	1.88 µM (inactive)	1.16	2.33 µM (inactive)	1.61 µM (inactive)	0.317 µM (active)	0.778 µM (active)
COc1ccc(NC(=O)CC(=O)NN2C(=O)/C(=C/c3ccc(N(CCC#N)CCC#N)cc3C)N=C2/C=C\c2ccccc2)cc1	> 100 µM (inactive)	> 100 µM (inactive)	> 100 µM (inactive)	> 100 µM (inactive)	> 100 µM (inactive)	> 100 µM (inactive)	> 100 µM (inactive)	> 100 µM (inactive)	> 100 µM (inactive)	> 100 µM (inactive)	> 100 µM (inactive)	> 100 µM (inactive)	> 100 µM (inactive)	> 100 µM (inactive)	> 100	> 100 µM (inactive)	> 100 µM (inactive)	> 100 µM (inactive)	> 100 µM (inactive)
O=C(O)/C(Cl)=C(\Cl)C(=O)Nc1ccccc1	> 100 µM (inactive)	> 100 µM (inactive)	> 100 µM (inactive)	> 100 µM (inactive)	> 100 µM (inactive)	> 100 µM (inactive)	> 100 µM (inactive)	> 100 µM (inactive)	> 100 µM (inactive)	> 100 µM (inactive)	> 100 µM (inactive)	> 100 µM (inactive)	> 100 µM (inactive)	> 100 µM (inactive)	> 100	> 100 µM (inactive)	> 100 µM (inactive)	> 100 µM (inactive)	> 100 µM (inactive)
COc1ccc(OC)c(-c2cc(O)c3cc4c(cc3n2)OCO4)c1	6.34 µM (inactive)	13.9 µM (inactive)	11 µM (inactive)	2.98 µM (inactive)	6.58 µM (inactive)	4.1 µM (inactive)	4.12 µM (inactive)	8.53 µM (inactive)	6.47 µM (inactive)	4.11 µM (inactive)	7.69 µM (inactive)	3.86 µM (inactive)	5.7 µM (inactive)	3.54 µM (inactive)	4.22	5.87 µM (inactive)	19.8 µM (inactive)	3.44 µM (inactive)	6.07 µM (inactive)
O=[N+]([O-])c1ccc(Cl)c(C2CC(c3cccc4ccccc34)=Nc3ccccc3[S+]2[O-])c1 (configuration not stated)	3.68 µM (inactive)	21.8 µM (inactive)	31.8 µM (inactive)	14.4 µM (inactive)	18.5 µM (inactive)	15.1 µM (inactive)	13.2 µM (inactive)	29.5 µM (inactive)	9.93 µM (inactive)	3.97 µM (inactive)	17 µM (inactive)	18.9 µM (inactive)	13.7 µM (inactive)	0.519 µM (active)	13.6	19.4 µM (inactive)	17.7 µM (inactive)	8.75 µM (inactive)	15.4 µM (inactive)
